Measured values as given in patent US12569509B2, “Method and composition for preventing and treating viral infections” (priority 2017, dated 2026).
Several values for one entry are separate records, joined by “and”; a condition that tells them apart may be missing. Equal entries are not always repeated. Entries after “also recorded” stand apart in the source; their conditions may differ.

Assays:
[1] = test system: human PBMC; assay: Test compound induced cytokine secretion in human PBMC without LPS, 10 or 26 hours (Phase 1); conditions: 100 μM, 26 hours, no LPS
Method: Secretion of the cytokines TNF-α (A), IL-1β (B) and IL-6 (C) were measured in supernatant of PBMC cultured in the presence of test compounds using a Luminex platform with the Milliplex MAP Human High Sensitivity T Cell Panel Immunology Multiplex Assay. Results are represented as a mean from 3 separate donors in pg/mL.
Whole blood was collected from 3 human donors and peripheral blood mononuclear cells (PBMC) were isolated using the Ficoll-Paque density gradient method. PBMC were then plated and left untouched for 2 hours to account for a 2 hours pretreatement period (see below for details), and incubated for 8 or 24 hours in a humidified incubator set to maintain 37° C. with 5% CO2, with different concentrations of LPS as per Table 11 in order to determine the optimal stimulation conditions to detect cytokine release. […] RPMI medium alone or supplemented with 0.1% DMSO (to mimic treatment conditions) were used as negative controls.
At the end of the incubation period, supernatant samples were recovered and stored at −80° C. until analysis (in duplicate) using a Luminex platform with the Milliplex MAP Human High Sensitivity T Cell Panel Immunology Multiplex Assay (Cat. No. HSTCMAG-28SK) with the following selected cytokines of interest: IL-1, IL-2, IL-6, IFN-g and TNF-α. Each assay was defined by one calibration curve and 2 sets of QCs and the results were expressed as pg/mL.

[2] = target: T1, RecQ helicase (Escherichia coli, UniProt P15043); assay: Cell-free fluorescence molecular beacon helicase assay; assay type: biochemical, E. coli; set-up: Average rate of reaction / Rate (Triplicate): unit: RFU/min; conditions: for Fluorescence at 35 minutes, Run 2 / Fluorescence at time 0, Run 2: duplicate, listed as H; for Average rate of reaction: mean of triplicate; for Rate (Triplicate): rate of reaction=(F0-F35)/35; for Change in helicase activity compared to the DMSO control: any of the tested concentrations (0.06-200 μg/mL)
T1 construct: a full-length E. coli helicase, RecQ, was used
T1 sequence (P15043 whole entry): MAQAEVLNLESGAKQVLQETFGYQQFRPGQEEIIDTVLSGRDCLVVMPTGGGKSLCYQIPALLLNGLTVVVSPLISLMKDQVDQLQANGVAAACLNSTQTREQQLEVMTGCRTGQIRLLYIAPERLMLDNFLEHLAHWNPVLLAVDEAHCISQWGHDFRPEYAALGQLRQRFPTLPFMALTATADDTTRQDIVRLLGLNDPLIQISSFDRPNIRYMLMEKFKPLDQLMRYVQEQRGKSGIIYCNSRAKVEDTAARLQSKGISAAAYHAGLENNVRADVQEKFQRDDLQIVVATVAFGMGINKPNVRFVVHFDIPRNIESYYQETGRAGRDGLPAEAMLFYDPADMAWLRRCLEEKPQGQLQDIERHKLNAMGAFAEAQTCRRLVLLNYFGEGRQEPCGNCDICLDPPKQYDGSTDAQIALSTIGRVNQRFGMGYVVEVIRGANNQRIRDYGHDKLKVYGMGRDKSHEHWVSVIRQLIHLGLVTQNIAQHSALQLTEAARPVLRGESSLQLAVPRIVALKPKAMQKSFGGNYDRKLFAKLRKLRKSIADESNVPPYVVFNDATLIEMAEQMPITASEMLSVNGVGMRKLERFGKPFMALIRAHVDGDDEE

[3] = test system: human PBMC; assay: LPS stimulated cytokine secretion in human PBMC pretreated with compounds (Phase 2); assay type: cell-based; set-up: TNF-α concentration in supernatant / IL-1β concentration in supernatant / IL-6 concentration in supernatant / IL-2 concentration in supernatant / IFN-g concentration in supernatant: unit of the concentration uncertain; conditions: for IL-1β Mean Fold-Change (Relative to LPS alone) / IL-6 Mean Fold-Change (Relative to LPS alone) / TNF-α Mean Fold-Change (Relative to LPS alone): 1 ng/mL LPS stimulation for 8 hours, means from 3 donors; for IL-2 concentration in supernatant / TNF-α concentration in supernatant / IL-1β concentration in supernatant / IFN-g concentration in supernatant / IL-6 concentration in supernatant: 8-hour 1 ng/mL LPS stimulation; for IL-2 concentration in supernatant: LLOQ = 1.698 pg/mL; for TNF-α concentration in supernatant: LLOQ = 2.018 pg/mL; for IL-1β concentration in supernatant: LLOQ = 2.299 pg/mL; for IFN-g concentration in supernatant: LLOQ = 2.792 pg/mL; for IL-6 concentration in supernatant: LLOQ = 0.831
[4] = TA 0.06 μg/mL (plate column 4, wells A-C)
[5] = TA 0.2 μg/mL (plate column 5, wells A-C)
[6] = TA 0.6 μg/mL (plate column 6, wells A-C)
[7] = TA 2 μg/mL (plate column 7, wells A-C)
[8] = TA 6 μg/mL (plate column 8, wells A-C)
[9] = TA 60 μg/mL (plate column 10, wells A-C)
[10] = TA 200 + Buffer (plate column 12, wells A-C)

## COc1ccc([C@@H]2CC(=O)c3c(O)cc(O[C@@H]4O[C@H](CO[C@@H]5O[C@@H](C)[C@H](O)[C@@H](O)[C@H]5O)[C@@H](O)[C@H](O)[C@H]4O)cc3O2)cc1O [Hesperidin]
[1]
  Secretion of IL-1β and IL-6, compound alone: in one donor, secretion of IL-1β, and IL-6 was also observed
[2]; 0.06 μg/mL
  Fluorescence at 35 minutes, Run 2: 2987 RFU and 3023 RFU
  Fluorescence at time 0, Run 2: 5870 RFU and 7788 RFU
  Average rate of reaction: 61.47
[2]; 0.2 μg/mL
  Average rate of reaction: 53.5
  Rate (Triplicate): 47.51 and 71.4 and 41.6
[2]; 0.6 μg/mL
  Fluorescence at 35 minutes, Run 2: 2677 RFU and 2621 RFU
  Fluorescence at time 0, Run 2: 9523 RFU and 7721 RFU
  Average rate of reaction: 107.9714
[2]; 2 μg/mL
  Fluorescence at 35 minutes, Run 2: 2624 RFU and 2801 RFU
[2]; 2.0 μg/mL
  Average rate of reaction: 110.1429
  Rate (Triplicate): 108.1714 and 140.8 and 81.46
[2]; 6 μg/mL
  Fluorescence at 35 minutes, Run 2: 2526 RFU and 2818 RFU
  Fluorescence at time 0, Run 2: 8127 RFU and 9570 RFU
[2]; 6.0 μg/mL
  Average rate of reaction: 169.7048
[2]; 20 μg/mL
  Fluorescence at 35 minutes, Run 2: 3653 RFU and 3927 RFU
  Fluorescence at time 0, Run 2: 4464 RFU and 8870 RFU
[2]; 20.0 μg/mL
  Average rate of reaction: 55.09
[2]; 60 μg/mL
  Fluorescence at 35 minutes, Run 2: 4250 RFU and 4180 RFU
  Fluorescence at time 0, Run 2: 4134 RFU and 3133 RFU
[2]; 60.0 μg/mL
  Average rate of reaction: 58.1
[2]; 200 μg/mL
  Fluorescence at 35 minutes, Run 2: 3913 RFU and 4063 RFU
[2]; 200.0 μg/mL
  Average rate of reaction: 90.4381
[2]; [4]
  Fluorescence at 0:00:00, Run 1: 5759 RFU and 9125 RFU and 10456 RFU
  Fluorescence at 0:35:00, Run 1: 5467 RFU and 6877 RFU and 6542 RFU
[2]; [5]
  Fluorescence at 0:00:00, Run 1: 7735 RFU and 8642 RFU and 7853 RFU
  Fluorescence at 0:35:00, Run 1: 6072 RFU and 6143 RFU and 6397 RFU
[2]; [6]
  Fluorescence at 0:00:00, Run 1: 7559 RFU and 14137 RFU and 7347 RFU
  Fluorescence at 0:35:00, Run 1: 5304 RFU and 6502 RFU and 5900 RFU
[2]; [7]
  Fluorescence at 0:00:00, Run 1: 10359 RFU and 11454 RFU and 8360 RFU
  Fluorescence at 0:35:00, Run 1: 6573 RFU and 6526 RFU and 5509 RFU
[2]; [8]
  Fluorescence at 0:00:00, Run 1: 10222 RFU and 10590 RFU and 17264 RFU
  Fluorescence at 0:35:00, Run 1: 6164 RFU and 5213 RFU and 8880 RFU
[2]; [9]
  Fluorescence at 0:00:00, Run 1: 10452 RFU and 7252 RFU and 7210 RFU
  Fluorescence at 0:35:00, Run 1: 7008 RFU and 6217 RFU and 5588 RFU
[2]; TA 200 μg/mL (plate column 11, wells A-C)
  Fluorescence at 0:35:00, Run 1: 7231 RFU and 6648 RFU and 7799 RFU
[2]; [10]
  Fluorescence at 0:00:00, Run 1: 10477 RFU and 15660 RFU and 9770 RFU
  Fluorescence at 0:35:00, Run 1: 9155 RFU and 9497 RFU and 7774 RFU
[2]
  Change in helicase activity compared to the DMSO control: no observed clear change
[2]; listed as hesperidin
  Change in helicase activity compared to the DMSO control: no effect
[3]; 10 mM (so in the source)
  IL-1β Mean Fold-Change (Relative to LPS alone): 1.14
  IL-6 Mean Fold-Change (Relative to LPS alone): 1.10
  TNF-α Mean Fold-Change (Relative to LPS alone): 0.98
[3]; 100 mM (so in the source)
  IL-1β Mean Fold-Change (Relative to LPS alone): 1.30
  IL-6 Mean Fold-Change (Relative to LPS alone): 1.24
  TNF-α Mean Fold-Change (Relative to LPS alone): 1.20
[3]; 200 mM (so in the source), 2 h pretreatment, 1 ng/mL LPS 8 hours
  Effect on LPS stimulated secretion of IL-1b: increase; also recorded: appeared to enhance; also recorded: potentiate
[3]; 200 mM (so in the source)
  IL-1β Mean Fold-Change (Relative to LPS alone): 1.54
  IL-6 Mean Fold-Change (Relative to LPS alone): 1.25
  TNF-α Mean Fold-Change (Relative to LPS alone): 1.14
[3]; Donor 1, 10 (unit uncertain)
  IL-2 concentration in supernatant: <LLOQ
  TNF-α concentration in supernatant: 1889.91 pg/mL
  IL-1β concentration in supernatant: 3059.18 pg/mL
  IFN-g concentration in supernatant: <LLOQ
  IL-6 concentration in supernatant: 1099.07 pg/mL
[3]; Donor 1, 100 (unit uncertain)
  IL-2 concentration in supernatant: <LLOQ
  TNF-α concentration in supernatant: 2577.7 pg/mL
  IL-1β concentration in supernatant: 3955.41 pg/mL
  IFN-g concentration in supernatant: <LLOQ
  IL-6 concentration in supernatant: 1441.95 pg/mL
[3]; Donor 1, 200 (unit uncertain)
  IL-2 concentration in supernatant: <LLOQ
  TNF-α concentration in supernatant: 2290.76 pg/mL
  IL-1β concentration in supernatant: 4853.62 pg/mL
  IFN-g concentration in supernatant: <LLOQ
  IL-6 concentration in supernatant: 1485.45 pg/mL
[3]; Donor 2, 10 (unit uncertain)
  IL-2 concentration in supernatant: <LLOQ
  TNF-α concentration in supernatant: 1091.56 pg/mL
  IL-1β concentration in supernatant: 2855.56 pg/mL
  IFN-g concentration in supernatant: <LLOQ
[3]; Donor 2, 100 (unit uncertain)
  IL-2 concentration in supernatant: <LLOQ
  TNF-α concentration in supernatant: 1254.84 pg/mL
  IL-1β concentration in supernatant: 2344.12 pg/mL
  IFN-g concentration in supernatant: <LLOQ
[3]; Donor 2, 200 (unit uncertain)
  IL-2 concentration in supernatant: <LLOQ
  TNF-α concentration in supernatant: 1621.58 pg/mL
  IL-1β concentration in supernatant: 3244.42 pg/mL
  IFN-g concentration in supernatant: <LLOQ
[3]; Donor 3, 10 (unit uncertain)
  IL-2 concentration in supernatant: <LLOQ
  TNF-α concentration in supernatant: 3632.86 pg/mL
  IL-1β concentration in supernatant: 3800.6 pg/mL
  IFN-g concentration in supernatant: <LLOQ
[3]; Donor 3, 100 (unit uncertain)
  IL-2 concentration in supernatant: <LLOQ
  TNF-α concentration in supernatant: 3808.52 pg/mL
  IL-1β concentration in supernatant: 4941.84 pg/mL
  IFN-g concentration in supernatant: <LLOQ
[3]; Donor 3, 200 (unit uncertain)
  IL-2 concentration in supernatant: <LLOQ
  TNF-α concentration in supernatant: 2731.72 pg/mL
  IL-1β concentration in supernatant: 4883.06 pg/mL
  IFN-g concentration in supernatant: <LLOQ
